# Data: article PMC7827406, “Structure–Activity Relationship (SAR) Study of Spautin-1 to Entail the Discovery of Novel NEK4 Inhibitors” (International Journal of Molecular Sciences, 2021)
# Like-named read-outs stand apart in the source and are kept apart here.
# Assays:
# Experiment in all cases: biochemical
# Parameters in all cases: Eurofins KinaseProfiler full panel at Km ATP, residual kinase activity (%) relative to DMSO
# HIPK1(h) = HIPK1(h) (Homo sapiens, UniProt Q86Z02)
# Experimental: (§1) Eurofins performed a “Full KP Panel [Km ATP], KinaseProfile” which contains 429 radiometric kinase activity assays. The remaining kinase activity (%) was determined after treatment with the compounds at a concentration of 10 µM (Cfr. supporting information). Since we could not confirm the interaction between Spautin-1 analogues and USP13, a kinase screening was performed using a set of four compounds (Spautin-1 and three analogues) to discover off-targets and identify kinases that are potentially responsible for the reduction in cell viability observed in our screen (Table 2). The KINOMEscan from Eurofins was performed (see Table S1). This screen consists of a competitive binding assay in which the DNA-tagged kinase is incubated with one of the compounds in the presence of immobilized active site binding ligands. Binding of the compounds to the kinase hampers the binding of the kinase to the ligands and this inhibition was quantified by qPCR. The residual kinase activity, which represents the percentage of kinase attached to the immobilized ligands, was determined for 428 kinases at a standard screening concentration of 10 µM of the compounds dissolved in DMSO [61].
# cKit(h) = target: T1, cKit(h) (Homo sapiens, UniProt P10721)
# T1 construct: gene KIT
# Experimental: as §1
# MST2(h) = target: T2, MST2(h) (Homo sapiens, UniProt Q13188)
# T2 construct: gene STK3
# T2 sequence (Q13188 1-491): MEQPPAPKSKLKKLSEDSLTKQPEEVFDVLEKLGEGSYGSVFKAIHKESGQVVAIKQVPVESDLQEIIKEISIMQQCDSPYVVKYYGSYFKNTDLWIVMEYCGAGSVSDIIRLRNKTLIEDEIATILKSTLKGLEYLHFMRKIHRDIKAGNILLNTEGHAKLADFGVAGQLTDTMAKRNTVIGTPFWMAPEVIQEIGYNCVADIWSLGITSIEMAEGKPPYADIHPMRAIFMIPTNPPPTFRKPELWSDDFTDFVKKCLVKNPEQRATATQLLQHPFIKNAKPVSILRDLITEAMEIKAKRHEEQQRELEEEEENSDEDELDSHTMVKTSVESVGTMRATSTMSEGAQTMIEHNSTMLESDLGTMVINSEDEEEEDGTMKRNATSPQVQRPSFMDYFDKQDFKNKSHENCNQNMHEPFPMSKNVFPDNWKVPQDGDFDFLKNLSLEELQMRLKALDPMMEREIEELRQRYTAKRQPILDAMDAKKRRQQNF
# Experimental: as §1
# Fyn(h) = Fyn(h) (Homo sapiens, UniProt P06241)
# Experimental: as §1
# PKCα(h) = target: T3, PKCα(h) (Homo sapiens, UniProt P17252)
# T3 construct: gene PRKCA
# Experimental: as §1
# FGFR2(N549H)(h) = FGFR2(N549H)(h) (Homo sapiens, UniProt P21802, N549H)
# Experimental: as §1
# Fgr(h) = Fgr(h) (Homo sapiens, UniProt P09769)
# Experimental: as §1
# Tie2(Y897S)(h) = target: T4, Tie2(Y897S)(h) (Homo sapiens, UniProt Q02763, Y897S)
# T4 construct: gene TEK
# Experimental: as §1
# mTOR/FKBP12(h) = mTOR/FKBP12(h) (Homo sapiens, UniProt P42345)
# Experimental: as §1
# LIMK2(h) = LIMK2(h) (Homo sapiens, UniProt P53671)
# Experimental: as §1
# mTOR(h) = mTOR(h) (Homo sapiens, UniProt P42345)
# Experimental: as §1
# MAK(h) = target: T5, MAK(h) (Homo sapiens, UniProt P20794)
# T5 sequence (P20794 1-623): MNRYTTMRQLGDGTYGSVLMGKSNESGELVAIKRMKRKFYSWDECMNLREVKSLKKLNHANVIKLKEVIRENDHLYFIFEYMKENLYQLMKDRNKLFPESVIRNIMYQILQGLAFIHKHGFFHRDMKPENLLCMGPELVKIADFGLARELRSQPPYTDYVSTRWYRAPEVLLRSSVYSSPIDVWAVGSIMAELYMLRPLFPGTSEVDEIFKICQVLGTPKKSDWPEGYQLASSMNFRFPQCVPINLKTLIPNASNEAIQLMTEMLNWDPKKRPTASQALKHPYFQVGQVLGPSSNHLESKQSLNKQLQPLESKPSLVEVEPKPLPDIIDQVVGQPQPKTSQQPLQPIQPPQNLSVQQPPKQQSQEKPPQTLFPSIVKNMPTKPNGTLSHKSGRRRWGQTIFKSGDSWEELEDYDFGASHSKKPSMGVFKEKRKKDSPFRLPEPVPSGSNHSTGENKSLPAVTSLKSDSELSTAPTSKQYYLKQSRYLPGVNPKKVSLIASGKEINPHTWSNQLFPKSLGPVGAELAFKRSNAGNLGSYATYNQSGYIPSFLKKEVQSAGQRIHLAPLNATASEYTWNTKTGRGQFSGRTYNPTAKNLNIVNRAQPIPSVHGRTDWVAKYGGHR
# Experimental: as §1
# PKBγ(h) = target: T6, PKBγ(h) (Homo sapiens, UniProt Q9Y243)
# T6 construct: gene AKT3
# Experimental: as §1
# [1] = read-out: Residual activity (%) 5ay
# [2] = read-out: Residual activity (%) Spautin-1 5aa
# [3] = read-out: Residual activity (%) 5at
# [4] = read-out: Residual activity (%) 5as
# T6 sequence (Q9Y243 whole entry): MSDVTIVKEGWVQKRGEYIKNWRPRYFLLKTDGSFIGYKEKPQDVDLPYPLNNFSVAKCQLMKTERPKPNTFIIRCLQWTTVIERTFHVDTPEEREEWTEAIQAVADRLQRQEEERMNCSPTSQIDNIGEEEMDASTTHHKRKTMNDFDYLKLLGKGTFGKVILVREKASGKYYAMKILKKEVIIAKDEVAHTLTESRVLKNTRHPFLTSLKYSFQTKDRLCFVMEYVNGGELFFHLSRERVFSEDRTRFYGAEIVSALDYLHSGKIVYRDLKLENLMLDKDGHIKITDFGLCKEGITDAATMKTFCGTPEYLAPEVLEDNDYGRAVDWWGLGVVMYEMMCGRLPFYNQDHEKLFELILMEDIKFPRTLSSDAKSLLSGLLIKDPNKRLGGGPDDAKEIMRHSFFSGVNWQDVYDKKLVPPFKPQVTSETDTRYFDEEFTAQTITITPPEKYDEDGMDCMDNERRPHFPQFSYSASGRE
# T4 sequence (Q02763 whole entry Y897S): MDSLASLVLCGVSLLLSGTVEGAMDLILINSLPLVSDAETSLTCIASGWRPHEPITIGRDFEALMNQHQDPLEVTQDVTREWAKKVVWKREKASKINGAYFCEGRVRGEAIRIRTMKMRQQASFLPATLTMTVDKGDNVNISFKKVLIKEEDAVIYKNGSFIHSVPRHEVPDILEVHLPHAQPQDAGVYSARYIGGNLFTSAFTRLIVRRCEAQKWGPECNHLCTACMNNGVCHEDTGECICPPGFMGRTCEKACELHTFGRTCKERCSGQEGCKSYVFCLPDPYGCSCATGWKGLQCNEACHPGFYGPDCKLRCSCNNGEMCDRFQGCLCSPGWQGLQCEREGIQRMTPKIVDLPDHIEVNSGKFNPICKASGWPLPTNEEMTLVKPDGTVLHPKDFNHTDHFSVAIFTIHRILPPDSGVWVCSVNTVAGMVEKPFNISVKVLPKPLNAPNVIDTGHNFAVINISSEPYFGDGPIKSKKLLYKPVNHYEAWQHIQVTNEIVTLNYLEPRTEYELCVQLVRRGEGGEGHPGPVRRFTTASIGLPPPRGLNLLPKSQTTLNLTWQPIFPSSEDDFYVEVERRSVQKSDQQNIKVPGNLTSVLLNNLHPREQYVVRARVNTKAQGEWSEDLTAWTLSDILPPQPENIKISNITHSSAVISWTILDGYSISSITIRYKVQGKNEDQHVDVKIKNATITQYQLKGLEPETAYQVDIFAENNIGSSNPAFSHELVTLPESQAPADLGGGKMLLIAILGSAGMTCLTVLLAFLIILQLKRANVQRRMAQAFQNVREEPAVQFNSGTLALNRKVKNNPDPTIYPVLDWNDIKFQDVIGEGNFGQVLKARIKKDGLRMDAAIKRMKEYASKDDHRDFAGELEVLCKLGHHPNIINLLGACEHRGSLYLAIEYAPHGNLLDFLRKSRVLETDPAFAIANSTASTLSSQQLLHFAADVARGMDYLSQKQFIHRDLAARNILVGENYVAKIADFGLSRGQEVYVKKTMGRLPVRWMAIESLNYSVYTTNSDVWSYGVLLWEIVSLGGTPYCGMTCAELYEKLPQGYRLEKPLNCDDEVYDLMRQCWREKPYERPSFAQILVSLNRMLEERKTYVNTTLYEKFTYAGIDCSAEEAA
# Chain of Fgr(h) (P09769 whole entry): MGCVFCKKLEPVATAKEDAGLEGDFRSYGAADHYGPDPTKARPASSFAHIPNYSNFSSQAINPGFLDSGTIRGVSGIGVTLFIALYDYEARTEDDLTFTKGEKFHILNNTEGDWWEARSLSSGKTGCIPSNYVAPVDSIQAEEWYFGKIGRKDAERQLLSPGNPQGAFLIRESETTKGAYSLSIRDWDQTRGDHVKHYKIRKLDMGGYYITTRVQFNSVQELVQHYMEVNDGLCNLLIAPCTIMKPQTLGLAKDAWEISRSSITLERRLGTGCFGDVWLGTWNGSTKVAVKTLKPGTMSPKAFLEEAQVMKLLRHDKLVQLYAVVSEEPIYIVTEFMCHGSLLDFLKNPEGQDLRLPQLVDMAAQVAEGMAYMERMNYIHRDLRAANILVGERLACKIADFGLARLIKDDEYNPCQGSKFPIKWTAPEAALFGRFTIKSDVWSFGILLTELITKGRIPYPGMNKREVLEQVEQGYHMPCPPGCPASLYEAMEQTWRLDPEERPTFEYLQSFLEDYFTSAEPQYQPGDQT
# Chain of FGFR2(N549H)(h) (P21802 whole entry N549H): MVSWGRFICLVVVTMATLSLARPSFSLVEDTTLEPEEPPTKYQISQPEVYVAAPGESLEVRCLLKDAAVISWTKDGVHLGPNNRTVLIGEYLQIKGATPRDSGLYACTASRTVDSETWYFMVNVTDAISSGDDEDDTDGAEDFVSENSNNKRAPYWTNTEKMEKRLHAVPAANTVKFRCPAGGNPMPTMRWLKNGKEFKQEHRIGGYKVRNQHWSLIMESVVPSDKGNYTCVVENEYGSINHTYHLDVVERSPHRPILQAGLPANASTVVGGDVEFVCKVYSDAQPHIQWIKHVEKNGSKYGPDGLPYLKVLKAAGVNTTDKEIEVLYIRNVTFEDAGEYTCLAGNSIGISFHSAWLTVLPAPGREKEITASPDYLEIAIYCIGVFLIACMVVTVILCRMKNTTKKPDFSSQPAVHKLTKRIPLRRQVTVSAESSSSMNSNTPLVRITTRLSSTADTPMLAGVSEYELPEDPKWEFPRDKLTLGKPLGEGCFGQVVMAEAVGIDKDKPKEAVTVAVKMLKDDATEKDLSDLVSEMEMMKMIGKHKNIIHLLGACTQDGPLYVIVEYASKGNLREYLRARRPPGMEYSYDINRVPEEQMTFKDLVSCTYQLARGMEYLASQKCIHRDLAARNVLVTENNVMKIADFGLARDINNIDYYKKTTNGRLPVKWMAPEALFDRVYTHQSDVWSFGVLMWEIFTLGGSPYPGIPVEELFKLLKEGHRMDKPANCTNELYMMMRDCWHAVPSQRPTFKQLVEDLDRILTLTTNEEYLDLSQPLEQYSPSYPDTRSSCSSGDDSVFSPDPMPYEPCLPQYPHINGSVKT
# Chain of LIMK2(h) (P53671 whole entry): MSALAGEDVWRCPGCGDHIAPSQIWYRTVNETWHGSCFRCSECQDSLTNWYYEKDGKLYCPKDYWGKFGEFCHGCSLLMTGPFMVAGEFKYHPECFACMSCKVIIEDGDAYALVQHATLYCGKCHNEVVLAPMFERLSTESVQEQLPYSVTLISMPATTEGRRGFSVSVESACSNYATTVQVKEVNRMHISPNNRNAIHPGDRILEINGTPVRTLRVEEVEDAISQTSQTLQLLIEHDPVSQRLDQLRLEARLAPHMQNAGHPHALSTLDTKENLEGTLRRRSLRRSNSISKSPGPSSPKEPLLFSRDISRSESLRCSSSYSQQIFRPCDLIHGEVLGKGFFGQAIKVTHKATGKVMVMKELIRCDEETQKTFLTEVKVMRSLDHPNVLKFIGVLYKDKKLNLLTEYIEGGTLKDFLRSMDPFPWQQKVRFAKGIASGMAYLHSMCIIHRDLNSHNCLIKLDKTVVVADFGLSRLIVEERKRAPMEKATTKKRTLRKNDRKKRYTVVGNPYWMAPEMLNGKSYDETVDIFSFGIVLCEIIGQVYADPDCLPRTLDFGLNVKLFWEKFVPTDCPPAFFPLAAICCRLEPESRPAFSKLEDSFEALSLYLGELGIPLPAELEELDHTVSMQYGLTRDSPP
# Chain of Fyn(h) (P06241 whole entry): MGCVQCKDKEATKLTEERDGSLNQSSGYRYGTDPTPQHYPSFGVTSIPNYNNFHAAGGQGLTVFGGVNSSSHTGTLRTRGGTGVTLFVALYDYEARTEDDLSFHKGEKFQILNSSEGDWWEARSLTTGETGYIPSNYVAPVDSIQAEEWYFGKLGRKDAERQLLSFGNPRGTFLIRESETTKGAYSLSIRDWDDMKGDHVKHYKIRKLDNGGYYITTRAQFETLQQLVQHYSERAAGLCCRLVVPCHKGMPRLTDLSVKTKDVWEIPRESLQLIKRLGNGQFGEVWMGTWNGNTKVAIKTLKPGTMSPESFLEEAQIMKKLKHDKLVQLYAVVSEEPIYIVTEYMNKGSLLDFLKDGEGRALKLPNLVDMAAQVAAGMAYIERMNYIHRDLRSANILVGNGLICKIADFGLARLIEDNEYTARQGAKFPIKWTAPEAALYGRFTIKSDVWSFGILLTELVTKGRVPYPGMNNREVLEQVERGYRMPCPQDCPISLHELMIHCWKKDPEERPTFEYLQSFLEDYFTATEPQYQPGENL
structure (smiles),measurement,setting,value
"COc1ccc2ncnc(Nc3cccc(F)c3)c2c1 [5ay, N-(3-Fluorophenyl)-6-Methoxy-4-Quinazolinamine]",remaining activity at 10 µM,HIPK1(h); [1],78%
same,remaining activity at 10 µM,cKit(h); [1],83%
same,remaining activity at 10 µM,MST2(h); [1],102%
same,remaining activity at 10 µM,Fyn(h); [1],66%
same,remaining activity at 10 µM,PKCα(h); [1],86%
same,remaining activity at 10 µM,FGFR2(N549H)(h); [1],66%
same,remaining activity at 10 µM,Fgr(h); [1],90%
same,remaining activity at 10 µM,Tie2(Y897S)(h); [1],78%
same,remaining activity at 10 µM,mTOR/FKBP12(h); [1],88%
same,remaining activity at 10 µM,LIMK2(h); [1],103%
same,remaining activity at 10 µM,mTOR(h); [1],77%
same,remaining activity at 10 µM,MAK(h); [1],74%
same,remaining activity at 10 µM,PKBγ(h); [1],89%
"Fc1ccc(CNc2ncnc3ccc(F)cc23)cc1 [5aa, 6-Fluoro-N-(4-fluorobenzyl)-4-Quinazolinamine]",remaining activity at 10 µM,HIPK1(h); [2],94%
same,remaining activity at 10 µM,cKit(h); [2],93%
same,remaining activity at 10 µM,MST2(h); [2],98%
same,remaining activity at 10 µM,Fyn(h); [2],63%
same,remaining activity at 10 µM,PKCα(h); [2],89%
same,remaining activity at 10 µM,FGFR2(N549H)(h); [2],72%
same,remaining activity at 10 µM,Fgr(h); [2],112%
same,remaining activity at 10 µM,Tie2(Y897S)(h); [2],88%
same,remaining activity at 10 µM,mTOR/FKBP12(h); [2],100%
same,remaining activity at 10 µM,LIMK2(h); [2],94%
same,remaining activity at 10 µM,mTOR(h); [2],79%
same,remaining activity at 10 µM,MAK(h); [2],89%
same,remaining activity at 10 µM,PKBγ(h); [2],101%
"Fc1ccc2ncnc(NCCc3ccc(Cl)cc3)c2c1 [5at, N-[2-(4-Chlorophenyl)Ethyl]-6-Fluoro-4-Quinazolinamine]",remaining activity at 10 µM,HIPK1(h); [3],103%
same,remaining activity at 10 µM,cKit(h); [3],71%
same,remaining activity at 10 µM,MST2(h); [3],81%
same,remaining activity at 10 µM,Fyn(h); [3],75%
same,remaining activity at 10 µM,PKCα(h); [3],79%
same,remaining activity at 10 µM,FGFR2(N549H)(h); [3],68%
same,remaining activity at 10 µM,Fgr(h); [3],95%
same,remaining activity at 10 µM,Tie2(Y897S)(h); [3],85%
same,remaining activity at 10 µM,mTOR/FKBP12(h); [3],94%
same,remaining activity at 10 µM,LIMK2(h); [3],84%
same,remaining activity at 10 µM,mTOR(h); [3],80%
same,remaining activity at 10 µM,MAK(h); [3],76%
same,remaining activity at 10 µM,PKBγ(h); [3],105%
"Fc1ccc(CCNc2ncnc3ccc(F)cc23)cc1 [5as, 6-Fluoro-N-[2-(4-Fluorophenyl)Ethyl]-4-Quinazolinamine]",remaining activity at 10 µM,HIPK1(h); [4],120%
same,remaining activity at 10 µM,cKit(h); [4],78%
same,remaining activity at 10 µM,MST2(h); [4],112%
same,remaining activity at 10 µM,Fyn(h); [4],61%
same,remaining activity at 10 µM,PKCα(h); [4],94%
same,remaining activity at 10 µM,FGFR2(N549H)(h); [4],80%
same,remaining activity at 10 µM,Fgr(h); [4],114%
same,remaining activity at 10 µM,Tie2(Y897S)(h); [4],94%
same,remaining activity at 10 µM,mTOR/FKBP12(h); [4],89%
same,remaining activity at 10 µM,LIMK2(h); [4],87%
same,remaining activity at 10 µM,mTOR(h); [4],76%
same,remaining activity at 10 µM,MAK(h); [4],77%
same,remaining activity at 10 µM,PKBγ(h); [4],102%
